Experimental data from patent US11180474B2 (BRISTOL-MYERS SQUIBB COMPANY, priority 2016, dated 2021).

The compounds below were run against T1, human TLR7 (Homo sapiens, UniProt Q9NYK1) (assay: TLR7 inhibition reporter assay (HEK-Blue cells, SEAP reporter, gardiquimod stimulation)). Details: HEK-Blue cells overexpressing human TLR7, gardiquimod 7.5 μM.
T1 construct: host or cells: HEK-Blue cells
T1 sequence (Q9NYK1 27-1049): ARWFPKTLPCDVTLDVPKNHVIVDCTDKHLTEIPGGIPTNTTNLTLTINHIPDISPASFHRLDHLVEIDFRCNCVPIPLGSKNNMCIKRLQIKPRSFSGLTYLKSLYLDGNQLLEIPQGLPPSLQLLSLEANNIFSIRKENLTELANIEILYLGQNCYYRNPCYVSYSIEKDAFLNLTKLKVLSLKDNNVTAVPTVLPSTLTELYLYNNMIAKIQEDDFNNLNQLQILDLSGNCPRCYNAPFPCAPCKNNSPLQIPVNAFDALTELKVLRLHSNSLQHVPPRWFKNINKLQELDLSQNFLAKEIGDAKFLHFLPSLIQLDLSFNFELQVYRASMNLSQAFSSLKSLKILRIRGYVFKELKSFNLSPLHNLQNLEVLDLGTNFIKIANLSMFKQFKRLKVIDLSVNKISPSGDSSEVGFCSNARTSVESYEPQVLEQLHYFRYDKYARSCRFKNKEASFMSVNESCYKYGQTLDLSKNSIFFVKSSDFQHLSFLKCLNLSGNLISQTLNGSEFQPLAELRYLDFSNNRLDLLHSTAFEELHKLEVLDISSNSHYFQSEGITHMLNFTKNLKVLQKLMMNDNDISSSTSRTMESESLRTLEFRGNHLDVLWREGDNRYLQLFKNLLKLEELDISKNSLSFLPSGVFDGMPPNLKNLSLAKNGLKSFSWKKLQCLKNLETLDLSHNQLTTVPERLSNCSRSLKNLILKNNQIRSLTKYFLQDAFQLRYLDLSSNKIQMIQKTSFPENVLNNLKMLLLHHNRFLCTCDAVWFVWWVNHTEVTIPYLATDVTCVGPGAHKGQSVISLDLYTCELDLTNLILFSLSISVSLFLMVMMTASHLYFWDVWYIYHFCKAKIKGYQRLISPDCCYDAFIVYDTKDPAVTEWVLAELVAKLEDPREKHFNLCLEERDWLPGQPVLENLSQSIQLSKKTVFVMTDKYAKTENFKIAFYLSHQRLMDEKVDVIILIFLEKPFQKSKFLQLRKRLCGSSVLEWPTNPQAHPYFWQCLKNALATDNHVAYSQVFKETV
Format: cell-based
Summary of the method: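 SEAP readout via HEK-Blue Detection medium after 22 h at 37 °C, 5% CO2 defines inhibition, normalized between agonist-plus-DMSO wells and a reference inhibitor. Compound dose range 0.05 nM–50 μM; TLR7 cells at 15,000/well (gardiquimod), TLR8 at 20,000/well (R848).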

| IC50 | SMILES |
| --- | --- |
| 33 nM | COc1ccc(-c2[nH]c3ccc(C4CCN(C(=O)CNCC(C)(C)CO)CC4)cc3c2C(C)C)cc1OC [Example 219, 1-(4-(2-(3,4-dimethoxyphenyl)-3-isopropyl-1H-indol-5-yl)piperidin-1-yl)-2-((3-hydroxy-2,2-dimethylpropyl)amino)ethan-1-one] |
| 171 nM | CCc1c(-c2ccc(OC)c(OC)c2)[nH]c2cc(OC)c(C3CCN(C4CCN(C(C)C)CC4)CC3)cc12 [Example 192, 2-(3,4-dimethoxyphenyl)-3-ethyl-5-(1′-isopropyl-[1,4′-bipiperidin]-4-yl)-6-methoxy-1H-indole] |
| 898 nM | CCc1c(-c2ccc(OC)c(OC)c2)[nH]c2ccc(C3CCN(C4CCN(Cc5ccsc5)CC4)CC3)cc12 [Example 142, 2-(3,4-dimethoxyphenyl)-3-ethyl-5-(1′-(thiophen-3-ylmethyl)-[1,4′-bipiperidin]-4-yl)-1H-indole] |
| 119 nM | COc1ccc(-c2[nH]c3ccc(C4CCN(C5CCN(C(C)C)CC5)CC4)cc3c2C(C)C)cc1OC [Example 201, 2-(3,4-dimethoxyphenyl)-3-isopropyl-5-(1′-isopropyl-[1,4′-bipiperidin]-4-yl)-1H-indole] |
| 7980 nM | CCc1c(-c2ccc(OC)c(OC)c2)[nH]c2ccc(C3CCN(C4CCN(C)CC4)CC3)cc12 [Example 150, 2-(3,4-dimethoxyphenyl)-3-ethyl-5-(1′-methyl-[1,4′-bipiperidin]-4-yl)-1H-indole] |
| 292 nM | CCc1c(-c2ccc(OC)c(OC)c2)[nH]c2ccc(C3CCN(C4CCN(Cc5ccccc5)CC4)CC3)cc12 [Example 147, 5-(1′-benzyl-[1,4′-bipiperidin]-4-yl)-2-(3,4-dimethoxyphenyl)-3-ethyl-1H-indole] |
| 398 nM | CCc1c(-c2ccc(OC)c(OC)c2)[nH]c2ccc(C3CCN(C4CCN(CC(C)C)CC4)CC3)cc12 [Example 123, 2-(3,4-dimethoxyphenyl)-3-ethyl-5-(1′-isobutyl-[1,4′-bipiperidin]-4-yl)-1H-indole-di-trifluoroacetic acid] |
| 1020 nM | CCc1c(-c2ccc(OC)c(OC)c2)[nH]c2ccc(C3CCN(C4CCN(Cc5ccc(C)s5)CC4)CC3)cc12 [Example 140, 2-(3,4-dimethoxyphenyl)-3-ethyl-5-(1′-((5-methylthiophen-2-yl)methyl)-[1,4′-bipiperidin]-4-yl)-1H-indole] |
| 31 nM | COc1ccc(-c2[nH]c3ccc(C4CCN(C(=O)CNC5(CO)CCCC5)CC4)cc3c2C(C)C)cc1OC [Example 213, 1-(4-(2-(3,4-dimethoxyphenyl)-3-isopropyl-1H-indol-5-yl)piperidin-1-yl)-2-((1-(hydroxymethyl)cyclopentyl)amino)ethan-1-one] |
| 588 nM | CCc1c(-c2ccc(OC)c(OC)c2)[nH]c2c(F)cc(C3CCN(C4CCN(CC(C)C)CC4)CC3)cc12 [Example 190, 2-(3,4-dimethoxyphenyl)-3-ethyl-7-fluoro-5-(1′-isobutyl-[1,4′-bipiperidin]-4-yl)-1H-indole] |
| 3570 nM | COc1ccc(-c2[nH]c3cc(C)c(C4CCN(C5CCN(C(C)C)CC5)CC4)cc3c2C(C)C)cc1OC [Example 206, 2-(3,4-dimethoxyphenyl)-3-isopropyl-5-(1′-isopropyl-[1,4′-bipiperidin]-4-yl)-6-methyl-1H-indole di trifluoroacetic acid] |
| 371 nM | CCc1c(-c2ccc(OC)c(OC)c2)[nH]c2ccc(C3CCN(C4CCN(Cc5cc(C)n[nH]5)CC4)CC3)cc12 [Example 131, 2-(3,4-dimethoxyphenyl)-3-ethyl-5-(1′-((3-methyl-1H-pyrazol-5-yl)methyl)-[1,4′-bipiperidin]-4-yl)-1H-indole] |
| 1870 nM | CCc1c(-c2ccc(OC)c(OC)c2)[nH]c2ccc(C3CCN(C4CCN(Cc5cnc(C)o5)CC4)CC3)cc12 [Example 124, 5-((4-(2-(3,4-dimethoxyphenyl)-3-ethyl-1H-indol-5-yl)-[1,4′-bipiperidin]-1′-yl)methyl)-2-methyloxazole] |
| ≥ 50000 nM | CCc1c(-c2ccc(OC)c(OC)c2)[nH]c2ccc(C3CCN(C4CCN(Cc5cc(C)nn5C)CC4)CC3)cc12 [Example 132, 2-(3,4-dimethoxyphenyl)-5-(1′-((1,3-dimethyl-1H-pyrazol-5-yl)methyl)-[1,4′-bipiperidin]-4-yl)-3-ethyl-1H-indole] |
| 134 nM | CCc1c(-c2ccc(OC)c(OC)c2)[nH]c2ccc(C3CCN(CCNC)CC3)cc12 [Example 155, 2-(4-(2-(3,4-dimethoxyphenyl)-3-ethyl-1H-indol-5-yl)piperidin-1-yl)-N-methylethanamine di-trifluoroacetic acid] |
| 88 nM | CCc1c(-c2ccc(OC)c(OC)c2)[nH]c2ccc(C3CCN(C(=O)CNC4CCC(N(C)C)CC4)CC3)cc12 (stereo not shown) [Example 162, 1-(4-(2-(3,4-dimethoxyphenyl)-3-ethyl-1H-indol-5-yl)piperidin-1-yl)-2-((4-(dimethylamino)cyclohexyl)amino)ethan-1-one] |
| 120 nM | COc1ccc(-c2[nH]c3ccc(C4CCN(C5CCN(CC(C)C)CC5)CC4)cc3c2C(C)C)cc1OC [Example 199, 2-(3,4-dimethoxyphenyl)-5-(1′-isobutyl-[1,4′-bipiperidin]-4-yl)-3-isopropyl-1H-indole] |
| 345 nM | CCc1c(-c2ccc(OC)c(OC)c2)[nH]c2ccc(C3CCN(C4CCN(CC)CC4)CC3)cc12 [Example 149, 2-(3,4-dimethoxyphenyl)-3-ethyl-5-(1′-ethyl-[1,4′-bipiperidin]-4-yl)-1H-indole] |
| 273 nM | CCc1c(-c2ccc(OC)c(OC)c2)[nH]c2ccc(C3CCN(C(C)=O)CC3)cc12 [Example 185, 1-(4-(2-(3,4-dimethoxyphenyl)-3-ethyl-1H-indol-5-yl)piperidin-1-yl)ethan-1-one] |
| 590 nM | CCc1c(-c2ccc(OC)c(OC)c2)[nH]c2ccc(C3CCN(C4CCN(C5CCCC5)CC4)CC3)cc12 [Example 152, 5-(1′-cyclopentyl-[1,4′-bipiperidin]-4-yl)-2-(3,4-dimethoxyphenyl)-3-ethyl-1H-indole] |
| 3280 nM | CCc1c(-c2ccc(OC)c(OC)c2)[nH]c2ccc(C3CCN(C4CCN(Cc5cc6ccccc6[nH]5)CC4)CC3)cc12 [Example 128, 5-(1′-((1H-indol-2-yl)methyl)-[1,4′-bipiperidin]-4-yl)-2-(3,4-dimethoxyphenyl)-3-ethyl-1H-indole] |
| 507 nM | CCc1c(-c2ccc(OC)c(OC)c2)[nH]c2ccc(C3CCN(C4CCN(C(C)C)CC4)CC3)cc12 [Example 151, 2-(3,4-dimethoxyphenyl)-3-ethyl-5-(1′-isopropyl-[1,4′-bipiperidin]-4-yl)-1H-indole] |
| 409 nM | COc1ccc(-c2[nH]c3ccc(C4CCN(C(=O)CNC56CC7CC(CC(C7)C5)C6)CC4)cc3c2C(C)C)cc1OC [Example 217, 2-(((3s,5s,7s)-adamantan-1-yl)amino)-1-(4-(2-(3,4-dimethoxyphenyl)-3-isopropyl-1H-indol-5-yl)piperidin-1-yl)ethan-1-one] |
| 9 nM | CNCCN1CCC(c2cc3c(C(C)C)c(-c4ccc(OC)c(OC)c4)[nH]c3cc2F)CC1 [Example 208, 2-(4-(2-(3,4-dimethoxyphenyl)-6-fluoro-3-isopropyl-1H-indol-5-yl)piperidin-1-yl)-N-methylethan-1-amine] |
| ≥ 50000 nM | CCc1c(-c2ccc(OC)c(OC)c2)[nH]c2ccc(C3CCN(CC(C)C(F)(F)F)CC3)cc12 (stereo not shown) [Example 180, 2-(3,4-dimethoxyphenyl)-3-ethyl-5-(1-(3,3,3-trifluoro-2-methylpropyl)piperidin-4-yl)-1H-indole] |
| 5260 nM | CNCCN1CCC(c2ccc3c(c2)c(C)c(-c2ccc(OC)c(OC)c2)n3C)CC1 [Example 114, 2-(4-(2-(3,4-dimethoxyphenyl)-1,3-dimethyl-1H-indol-5-yl)piperidin-1-yl)-N-methylethan-1-amine] |
| 1260 nM | CCc1c(-c2ccc(OC)c(OC)c2)[nH]c2ccc(C3CCN(C4CCN(Cc5ccc(-c6ccccc6)o5)CC4)CC3)cc12 [Example 143, 2-(3,4-dimethoxyphenyl)-3-ethyl-5-(1′-((5-phenylfuran-2-yl)methyl)-[1,4′-bipiperidin]-4-yl)-1H-indole] |
| 70 nM | CCc1c(-c2ccc(OC)c(OC)c2)[nH]c2cc(C)c(C3CCN(CCNC)CC3)cc12 [Example 188, 2-(4-(2-(3,4-dimethoxyphenyl)-3-ethyl-6-methyl-1H-indol-5-yl)piperidin-1-yl)-N-methylethanamine-di-trifluoroacetic acid] |
